Measurements as given in US10815235B2, “Polycyclic compounds and uses thereof” (priority 2017, dated 2020).
Read-outs that look alike come from different tables or passages of the source.

What was measured:
Dopamine D2L receptor = Dopamine D2L receptor (Homo sapiens, UniProt P14416); assay: GTPγS Scintillation Proximity Assay, agonist and antagonist mode; format: biochemical
Protocol: (§1) Antagonist and agonist activities were determined using a GTPγS Scintillation Proximity Assay. The assay was prepared as follows: Membrane extracts were prepared from recombinant human Dopamine D2L, D3; Serotonin 5-HT1A, 5-HT1B, 5-HT1D and 5-HT1F receptors.
(§2) Samples were tested by proprietary biological assays by Ogeda S. A., Euroscreen FAST Business Unit, Rue Adrienne Bolland, 47 B-6041 Gosselies, Belgium. Each protein assay was prepared using the following conditions.
(§3) D2L • Assay buffer: 20 mM HEPES pH 7.4; 100 mM NaCl, 10 μg/ml saponin, 30 mM MgCl2, 0.1% protease-free BSA; • Membranes: recombinant D2L membrane extracts thawed on ice and diluted in assay buffer to give 1 mg/ml (10 μg/well) and kept on ice; • GDP: diluted in assay buffer to give a 3 μM final assay concentration; • Beads: PVT-WGA (Perkin Elmer, RPNQ001), diluted in assay buffer at 25 mg/ml (0.25 mg/well); and • GTPγ^35S: (PerkinElmer NEG030X), diluted in assay buffer to give 0.1 nM. D3 • Assay buffer: 20 mM HEPES pH 7.4; 100 mM NaCl, 10 μg/ml saponin, 1 mM MgCl2, 0.1% protease-free BSA; • Membranes: recombinant D3 membrane extracts thawed on ice and diluted in assay buffer to give 1 mg/ml (10 μg/well) and kept on ice; • GDP: diluted in assay buffer to give a 1 μM final assay concentration; • Beads: PVT-WGA (Perkin Elmer, RPNQ001), diluted in assay buffer at 50 mg/ml (0.5 mg/well); and • GTPγ^35S: (PerkinElmer NEG030X), diluted in assay buffer to give 0.1 nM.
(§4) Membranes were mixed with GDP (volume:volume 1:1) and incubated for at least 15 min on ice. In parallel, GTPγ[^35S] is mixed with the beads (volume:volume 1:1) just before starting the reaction.
(§5) To determine agonist activity, the following reagents were added in the wells of an Optiplate (Perkin Elmer): 50 μL of test or reference ligand, 10 μL of assay buffer, 20 μl of the membranes:GDP mix, and 20 μL of the GTPγ[^35S]:beads mix. EC50 values were used to determine whether a compound acted as an agonist.
(§6) To determine antagonist activity, the following reagents were added in the wells of an Optiplate (Perkin Elmer): 50 μL of test or reference ligand, 20 μL of the membranes:GDP mix, then the plate is incubated 15 minutes at room temperature. After incubation, 10 μL of reference agonist at historical EC80 (final concentration) was added, followed by 20 μL of the GTPγ[^35S]:beads mix.
(§7) The plates were covered with a top seal, mixed on an orbital shaker for 2 min, and then incubated for 1 hour at room temperature. Then the plates were centrifuged for 10 min at 2000 rpm, incubated at room temperature 1 hour and counted for 1 min/well with a PerkinElmer TopCount reader. IC50 values were used to determine whether a compound acted as an antagonist.

Dopamine D3 receptor = Dopamine D3 receptor (Homo sapiens, UniProt P35462); assay: as above; format: biochemical
Protocol: as §1, §2, §3, §4, §5, §6, §7

[1] = target: T1, Serotonin 5-HT1A receptor (Homo sapiens, UniProt P08908); assay: as above; format: biochemical
T1 sequence (P08908 1-422): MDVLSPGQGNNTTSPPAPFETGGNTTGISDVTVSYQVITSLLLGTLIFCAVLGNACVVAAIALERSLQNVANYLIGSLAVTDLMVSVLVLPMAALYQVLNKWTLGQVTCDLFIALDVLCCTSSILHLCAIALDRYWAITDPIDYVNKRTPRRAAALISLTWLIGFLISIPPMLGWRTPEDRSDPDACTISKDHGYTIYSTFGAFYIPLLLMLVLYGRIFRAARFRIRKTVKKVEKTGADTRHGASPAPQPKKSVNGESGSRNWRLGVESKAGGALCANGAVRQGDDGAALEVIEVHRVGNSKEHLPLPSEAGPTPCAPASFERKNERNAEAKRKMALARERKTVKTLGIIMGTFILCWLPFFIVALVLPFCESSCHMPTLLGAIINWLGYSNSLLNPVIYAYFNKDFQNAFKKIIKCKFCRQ
Protocol: as §1, §2
5-HT1A • Assay buffer: 20 mM HEPES pH 7.4; 100 mM NaCl, 10 μg/ml saponin, 3 mM MgCl2, 0.1% protease-free BSA; • Membranes: recombinant 5-HT1A membrane extracts thawed on ice and diluted in assay buffer to give 1 mg/ml (10 μg/well) and kept on ice; • GDP: diluted in assay buffer to give a 3 μM final assay concentration; • Beads: PVT-WGA (Perkin Elmer, RPNQ001), diluted in assay buffer at 50 mg/ml (0.5 mg/well); and • GTPγ^35S: (PerkinElmer NEG030X), diluted in assay buffer to give 0.1 nM;
as §4, §5, §6, §7

Serotonin 5-HT7 receptor = target: T2, Serotonin 5-HT7 receptor (Homo sapiens, UniProt P34969); assay: cAMP HTRF Assay for Gs Coupled Receptors, agonist and antagonist mode; format: cell-based
T2 construct: expressed in transfected cells; host or cells: CHO-K1
Protocol: Antagonist and agonist activities were shown using a cAMP HTRF Assay for Gs Coupled Receptors. The assay was prepared as follows: CHO-K1 cells expressing recombinant human and Serotonin 5-HT7 receptors were grown, prior to analysis, in media without antibiotic. The cells were detached by gentle flushing with PBS-EDTA (5 mM EDTA), recovered by centrifugation, and resuspended in assay buffer (KRH: 5 mM KCl, 1.25 mM MgSO4, 124 mM NaCl, 25 mM HEPES, 13.3 mM Glucose, 1.25 mM KH2PO4, 1.45 mM CaCl2, 0.5 g/l BSA).
To determine agonist activity (96 well), 12 μL of cells were mixed with 12 μL of the test compound at increasing concentrations and then incubated 30 min at room temperature. After addition of the lysis buffer and 1 hour incubation, cAMP concentrations were estimated according to the manufacturer specification.
Antagonist activity was determined in 96 well plates: 12 μL of cells were mixed with 6 μL of the test compound at increasing concentrations and then incubated 10 min. Thereafter 6 μL of the reference agonist was added at a final concentration corresponding to the historical EC80. The plates were then incubated for 30 min at room temperature. After addition of the lysis buffer and 1 hour incubation, cAMP concentrations were estimated according to the manufacturer specification. IC50 values were used to determine whether a compound acted as an antagonist.

[2] = Agonist Activity (EC50), D2L, membrane extracts
[3] = Antagonist Activity (IC50), D2L, membrane extracts, vs reference agonist at EC80
[4] = EC50 value for the Dopamine D2L receptor, agonist mode, bound stated
[5] = IC50 value for the Dopamine D2L receptor, antagonist mode, bound stated
[6] = Antagonist Activity (IC50), D3, membrane extracts, vs reference agonist at EC80
[7] = IC50 value for the Dopamine D3 receptor, antagonist mode, bound stated
[8] = antagonist mode, bound stated, read-out: IC50 value for the Serotonin 5-HT1A receptor
[9] = membrane extracts, vs reference agonist at EC80, read-out: Antagonist Activity (IC50), 5-HT1A
[10] = Antagonist Activity (IC50), 5-HT7, CHO-K1 cells, vs reference agonist at EC80
[11] = IC50 value for the Serotonin 5-HT7 receptor, antagonist mode, bound stated
[12] = Agonist Activity (EC50), D3, membrane extracts
[13] = EC50 value for the Dopamine D3 receptor, agonist mode, bound stated

Chain of Dopamine D2L receptor (P14416 whole entry): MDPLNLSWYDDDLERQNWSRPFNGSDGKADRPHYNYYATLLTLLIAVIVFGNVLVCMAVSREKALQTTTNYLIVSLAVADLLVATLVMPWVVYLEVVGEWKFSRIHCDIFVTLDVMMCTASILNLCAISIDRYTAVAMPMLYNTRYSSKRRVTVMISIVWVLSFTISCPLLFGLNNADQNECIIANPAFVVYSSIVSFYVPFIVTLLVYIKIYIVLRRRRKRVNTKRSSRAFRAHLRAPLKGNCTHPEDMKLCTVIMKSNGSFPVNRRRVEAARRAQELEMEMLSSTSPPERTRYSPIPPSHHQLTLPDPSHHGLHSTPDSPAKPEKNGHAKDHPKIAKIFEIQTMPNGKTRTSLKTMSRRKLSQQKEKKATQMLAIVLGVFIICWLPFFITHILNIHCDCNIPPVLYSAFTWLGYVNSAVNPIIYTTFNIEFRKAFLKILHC
Chain of Dopamine D3 receptor (P35462 whole entry): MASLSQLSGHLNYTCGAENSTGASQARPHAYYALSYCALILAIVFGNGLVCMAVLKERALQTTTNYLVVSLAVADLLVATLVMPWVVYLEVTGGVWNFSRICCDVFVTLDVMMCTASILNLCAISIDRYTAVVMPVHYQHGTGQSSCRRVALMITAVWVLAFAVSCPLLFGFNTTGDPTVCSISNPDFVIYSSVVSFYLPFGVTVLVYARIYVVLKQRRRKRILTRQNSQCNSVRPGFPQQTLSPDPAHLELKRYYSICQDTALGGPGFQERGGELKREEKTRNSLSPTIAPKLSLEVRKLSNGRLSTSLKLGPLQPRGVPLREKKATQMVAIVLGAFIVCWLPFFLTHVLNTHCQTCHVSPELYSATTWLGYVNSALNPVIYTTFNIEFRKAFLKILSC
T2 sequence (P34969 whole entry): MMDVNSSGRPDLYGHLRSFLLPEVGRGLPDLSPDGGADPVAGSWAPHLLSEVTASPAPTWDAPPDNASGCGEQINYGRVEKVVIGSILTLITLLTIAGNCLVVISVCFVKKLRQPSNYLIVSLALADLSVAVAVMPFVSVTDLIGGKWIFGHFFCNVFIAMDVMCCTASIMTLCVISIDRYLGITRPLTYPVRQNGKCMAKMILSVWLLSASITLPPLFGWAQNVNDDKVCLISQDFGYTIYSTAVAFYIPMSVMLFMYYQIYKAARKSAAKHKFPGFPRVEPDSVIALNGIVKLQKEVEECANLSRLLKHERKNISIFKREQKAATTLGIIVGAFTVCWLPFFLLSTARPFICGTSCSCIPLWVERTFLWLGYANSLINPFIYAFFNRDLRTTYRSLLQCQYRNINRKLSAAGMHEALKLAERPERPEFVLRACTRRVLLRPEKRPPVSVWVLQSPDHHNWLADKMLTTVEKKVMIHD

CCN(CC)C(=O)N[C@H]1C[C@@H]2c3cccc4[nH]c(Br)c(c34)C[C@H]2N(C)C1 [Compound A8H, 3-((6aR,9S, 10aR)-5-bromo-7-methyl-4,6,6a,7,8,9,10,10a-octahydroindolo[4,3-fg]quinolin-9-yl)-1,1-diethylurea]
EC50 (Dopamine D2L receptor; [2]): 1.1 nM
IC50 (Dopamine D2L receptor; [3]): 3.5 nM
EC50 (Dopamine D2L receptor; [4]): < 1000 nM
IC50 (Dopamine D2L receptor; [5]): < 1000 nM
IC50 (Dopamine D3 receptor; [6]): 9.3 nM
IC50 (Dopamine D3 receptor; [7]): < 1000 nM
EC50 ([1]; agonist mode, bound stated, read-out: EC50 value for the Serotonin 5-HT1A receptor): < 1000 nM
IC50 [1, 8]: < 1000 nM
IC50 [1, 9]: 160 nM
EC50 ([1]; membrane extracts, read-out: Agonist Activity (EC50), 5-HT1A): 31 nM
IC50 (Serotonin 5-HT7 receptor; [10]): 110 nM
IC50 (Serotonin 5-HT7 receptor; [11]): < 1000 nM

CCN(CC)C(=O)N[C@H]1C[C@@H]2c3cccc4[nH]c(C(F)(F)F)c(c34)C[C@H]2N(C)C1 [Compound A9H, 1,1-diethyl-3-((6aR,9S,10aR)-7-methyl-5-(trifluoromethyl)-4,6,6a,7,8,9,10,10a-octahydroindolo[4,3-fg]quinolin-9-yl)urea]
EC50 (Dopamine D2L receptor; [2]): 4.6 nM
IC50 (Dopamine D2L receptor; [3]): 42 nM
EC50 (Dopamine D2L receptor; [4]): < 1000 nM
IC50 (Dopamine D2L receptor; [5]): < 1000 nM
IC50 (Dopamine D3 receptor; [6]): 13 nM
IC50 (Dopamine D3 receptor; [7]): < 1000 nM
IC50 (Serotonin 5-HT7 receptor; [10]): 190 nM
IC50 (Serotonin 5-HT7 receptor; [11]): < 1000 nM

CCN(CC(F)(F)F)C(=O)N[C@H]1C[C@@H]2c3cccc4[nH]c(C(F)(F)F)c(c34)C[C@H]2N(C)C1 [Compound A16H, 1-ethyl-3-((6aR,9S,10aR)-7-methyl-5-(trifluoromethyl)-4,6,6a,7,8,9,10,10a-octahydroindolo[4,3-fg]quinolin-9-yl)-1-(2,2,2-trifluoroethyl)urea]
IC50 (Dopamine D2L receptor; [5]): < 1000 nM
IC50 (Dopamine D2L receptor; membrane extracts, vs reference agonist at EC80, read-out: Antagonist Activity (IC50), D2L): 130 nM
IC50 (Dopamine D3 receptor; [7]): < 1000 nM
IC50 (Dopamine D3 receptor; membrane extracts, vs reference agonist at EC80, read-out: Antagonist Activity (IC50), D3): 55 nM
IC50 (Serotonin 5-HT7 receptor; CHO-K1 cells, vs reference agonist at EC80, read-out: Antagonist Activity (IC50), 5-HT7): 380 nM
IC50 (Serotonin 5-HT7 receptor; [11]): < 1000 nM

CCN(CC(F)(F)F)C(=O)N[C@H]1C[C@@H]2c3cccc4[nH]c(C5CC5)c(c34)C[C@H]2N(C)C1 [Compound A17H, 3-((6aR,9S,10aR)-5-cyclopropyl-7-methyl-4,6,6a,7,8,9,10,10a-octahydroindolo[4,3-fg]quinolin-9-yl)-1-ethyl-1-(2,2,2-trifluoroethyl)urea]
EC50 (Dopamine D2L receptor; [2]): 1.1 nM
IC50 (Dopamine D2L receptor; [3]): 4.2 nM
IC50 (Dopamine D2L receptor; [5]): < 1000 nM
EC50 (Dopamine D3 receptor; [12]): 8.2 nM
IC50 (Dopamine D3 receptor; [6]): 11 nM
EC50 (Dopamine D3 receptor; [13]): < 1000 nM
IC50 (Dopamine D3 receptor; [7]): < 1000 nM
IC50 [1, 8]: < 1000 nM
IC50 [1, 9]: 590 nM
IC50 (Serotonin 5-HT7 receptor; [10]): 140 nM
IC50 (Serotonin 5-HT7 receptor; [11]): < 1000 nM

CC[C@@H](CO)NC(=O)[C@@H]1C[C@@H]2c3cccc4c3c(c(C3CC3)n4C)C[C@H]2N(C)C1 [Compound D13H, (6aR,9R,10aR)-5-cyclopropyl-N—((S)-1-hydroxybutan-2-yl)-4,7-dimethyl-4,6,6a,7,8,9,10,10a-octahydroindolo[4,3-fg]quinoline-9-carboxamide]
EC50 (Dopamine D2L receptor; [2]): 170 nM
EC50 (Dopamine D2L receptor; [4]): < 1000 nM
EC50 (Dopamine D3 receptor; [12]): 48 nM
IC50 (Dopamine D3 receptor; [6]): 400 nM
EC50 (Dopamine D3 receptor; [13]): < 1000 nM
IC50 (Dopamine D3 receptor; [7]): < 1000 nM
EC50 (Serotonin 5-HT7 receptor): 40 nM
IC50 (Serotonin 5-HT7 receptor; [10]): 780 nM
IC50 (Serotonin 5-HT7 receptor; [11]): < 1000 nM
